Experimental data as given in US20020052365A1, “Selective anxiolytic therapeutic agents” (priority 2000, published 2002).
“Also recorded” adds a separate entry of the source.

Experiments:
[1] = system: wild type, α2(H101R) and α3(H126R) mice; assay: Locomotor activity; assay type: in vivo, mouse; conditions: diazepam 3, 10, 30 mg/kg p.o., 30 min prior
Experimental: (§1) V, vehicle. […] 31:733. Locomotor activity was automatically recorded for 30 min.

[2] = system: wild type, α2(H101R) and α3(H126R) mice; assay: Light/dark choice test; assay type: in vivo, mouse; conditions: for time in the lit area: sodium phenobarbital 15 mg/kg s.c., n=6-8
Experimental: (§2) FIG. 4A: Light/dark choice test. […] FIGS. 4B-C: Elevated plus-maze. […] FIG. 4D: Light/dark choice test. […] FIGS. 4E-F: Elevated plus-maze. […] Results are given as means ±S.E.M.+, P<0.05;++, P<0.01;+++P<0.001 (Dunnett's or Fisher's pair-wise post-hoc comparisons or Fisher's exact tests). […] The light-dark choice test was carried out as described infra with an illumination of 500 lux. […] The elevated plus-maze was performed as described infra under an indirect dim light illumination (<10 lux).
In a chamber containing an interconnected dark and lit (500 lux) box, the behavior of wild-type and mutant mice was tested for 5 min following the first entry into the dark compartment. […] The time spent in the lit box was recorded.
(§3) Female wild-type and mutant mice were raised in the test rooms and behaviorally tested during the dark period of the 1 2-hr light/dark cycle.

[3] = target: T1, α2 subunits from α2(H101R) mice (Mus musculus, UniProt P22723+P26048, H129R); assay: Diazepam affinity by [3H]Ro15-4513 binding after immunoprecipitation with α2 subunit-specific antiserum; conditions: immunoprecipitated
T1 construct: from tissue; host or cells: brain of α2(H101R) knock-in mice
T1 sequence (P26048 29-451 H129R): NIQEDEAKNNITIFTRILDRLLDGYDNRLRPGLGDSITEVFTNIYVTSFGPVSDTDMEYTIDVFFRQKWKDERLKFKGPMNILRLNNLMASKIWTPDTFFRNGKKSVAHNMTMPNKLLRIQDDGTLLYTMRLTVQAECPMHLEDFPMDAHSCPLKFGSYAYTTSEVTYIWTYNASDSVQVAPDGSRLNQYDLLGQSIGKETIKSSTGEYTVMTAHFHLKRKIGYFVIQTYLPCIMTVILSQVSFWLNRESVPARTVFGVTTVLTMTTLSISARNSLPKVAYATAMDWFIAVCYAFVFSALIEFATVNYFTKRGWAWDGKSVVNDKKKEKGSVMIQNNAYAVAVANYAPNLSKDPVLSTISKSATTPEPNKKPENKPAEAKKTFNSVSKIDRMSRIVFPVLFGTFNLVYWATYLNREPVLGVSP
T1 sequence (P22723 39-474): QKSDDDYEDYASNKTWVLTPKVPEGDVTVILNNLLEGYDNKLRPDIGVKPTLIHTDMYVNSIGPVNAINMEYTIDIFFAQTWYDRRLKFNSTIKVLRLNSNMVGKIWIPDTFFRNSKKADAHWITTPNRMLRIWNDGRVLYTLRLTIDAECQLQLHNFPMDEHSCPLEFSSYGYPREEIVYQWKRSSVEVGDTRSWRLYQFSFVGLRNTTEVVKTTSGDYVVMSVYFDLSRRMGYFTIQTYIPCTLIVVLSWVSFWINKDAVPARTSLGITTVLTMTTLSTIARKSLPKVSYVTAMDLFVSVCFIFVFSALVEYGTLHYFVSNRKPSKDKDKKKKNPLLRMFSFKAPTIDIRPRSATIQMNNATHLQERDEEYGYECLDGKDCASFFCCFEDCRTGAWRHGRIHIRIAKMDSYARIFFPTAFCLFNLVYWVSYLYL
T1 sequence (P63080 26-473 partner): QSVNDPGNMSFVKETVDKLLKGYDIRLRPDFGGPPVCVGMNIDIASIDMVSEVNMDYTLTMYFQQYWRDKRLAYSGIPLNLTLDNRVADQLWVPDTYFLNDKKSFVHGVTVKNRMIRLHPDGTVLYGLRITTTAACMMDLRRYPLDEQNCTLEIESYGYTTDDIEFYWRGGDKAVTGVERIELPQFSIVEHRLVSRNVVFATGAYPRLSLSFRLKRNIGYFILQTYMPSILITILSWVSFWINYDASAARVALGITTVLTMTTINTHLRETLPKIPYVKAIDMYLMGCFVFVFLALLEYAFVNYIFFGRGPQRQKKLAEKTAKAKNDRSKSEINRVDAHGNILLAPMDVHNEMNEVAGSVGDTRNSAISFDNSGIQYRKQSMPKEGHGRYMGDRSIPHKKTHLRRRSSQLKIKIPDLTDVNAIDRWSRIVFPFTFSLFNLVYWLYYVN
Text: (§4) To distinguish between the pharmacology of α2 and α3 receptor subtypes, two mouse lines were generated in which a point mutation was introduced into homologous positions of the α2 subunit gene [α2(H101R)]

[4] = system: wild type, α2(H101R) and α3(H126R) mice; assay: Pentylenetetrazole test; assay type: in vivo, mouse; conditions: pentylenetetrazole 120 mg/kg ip, diazepam 3, 10, 30 mg/kg p.o.
Experimental: as §1
Following pentylenetetrazole treatment (120 mg/kg ip), occurrence and/or latency to tonic seizures was recorded for a maximum of 10 minutes in wild type and mutant mice. […].

[5] = system: GABAA receptors in hippocampal pyramidal cells from α2(H101R) mice; assay: Patch-clamp GABA responses in cultured hippocampal pyramidal cells, α2(H101R); assay type: cell-based, mouse
Experimental: (§5) FIGS. 2A-C. […] The holding potential in the patch-clamp analysis was −60 mV the chloride concentration symmetrical. GABA was applied for 5 sec. Hippocampal neurons from E16.5 embryos were cultured for 10-14 days.

[6] = system: wild type and α1-GABAA receptor (H101R) mice; assay: Withdrawal after chronic diazepam and flumazenil administration; conditions: chronic diazepam then flumazenil
[7] = system: GABAA receptors in hippocampal pyramidal cells from wild type mice; assay: Patch-clamp GABA responses in cultured hippocampal pyramidal cells, wild type; assay type: cell-based, mouse
Experimental: as §5

[8] = target: T2, α3 subunits from α3(H126R) mice (Mus musculus, UniProt P22723+P26049, H154R); assay: Diazepam affinity by [3H]Ro15-4513 binding after immunoprecipitation with α3 subunit-specific antiserum; conditions: immunoprecipitated
T2 construct: from tissue; host or cells: brain of α3(H126R) knock-in mice
T2 sequence (P26049 29-492 H154R): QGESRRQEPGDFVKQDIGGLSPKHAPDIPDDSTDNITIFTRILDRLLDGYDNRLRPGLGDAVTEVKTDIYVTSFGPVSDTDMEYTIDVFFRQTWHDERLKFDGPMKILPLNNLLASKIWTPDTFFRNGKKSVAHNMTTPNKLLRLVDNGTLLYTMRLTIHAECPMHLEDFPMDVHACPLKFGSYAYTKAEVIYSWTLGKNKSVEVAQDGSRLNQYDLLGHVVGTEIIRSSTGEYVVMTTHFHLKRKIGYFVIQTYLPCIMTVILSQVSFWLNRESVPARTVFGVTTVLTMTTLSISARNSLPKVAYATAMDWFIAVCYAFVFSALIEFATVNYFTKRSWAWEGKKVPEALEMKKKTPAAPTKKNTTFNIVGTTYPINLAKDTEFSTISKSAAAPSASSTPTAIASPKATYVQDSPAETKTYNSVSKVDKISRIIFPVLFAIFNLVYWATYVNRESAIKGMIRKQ
T2 sequence (P22723 39-474): as the sequence (P22723 39-474) above
T2 sequence (P63080 26-473 partner): as the sequence (P63080 26-473 partner) above
Text: as §4

[9] = system: wild type, α2(H101R) and α3(H126R) mice; assay: Elevated plus-maze; assay type: in vivo, mouse; conditions: diazepam 2 mg/kg p.o.
Experimental: as §2
Mice were placed on an elevated crossbar with two walled and two open arms under indirect dim illumination. […] The time spent on the open arms and the number of open arm entries was recorded for 5 minutes.
as §3

[10] = target: diazepam-insensitive [3H]Ro15-4513 binding sites in α2(H101R) mice; assay: [3H]Ro15-4513 binding to diazepam-insensitive sites, α2(H101R) mouse brain; conditions: n=3
[11] = target: diazepam-insensitive [3H]Ro15-4513 binding sites (α4 and α6 GABAA receptors); assay: [3H]Ro15-4513 binding to diazepam-insensitive sites, wild type mouse brain; conditions: n=3
[12] = target: diazepam-insensitive [3H]Ro15-4513 binding sites in α3(H126R) mice; assay: [3H]Ro15-4513 binding to diazepam-insensitive sites, α3(H126R) mouse brain; conditions: n=3
[13] = system: recombinant α2(H101R)β3γ2 receptors; conditions: recombinant α2(H101R)β3γ2 in HEK-293 cells; cited from earlier work

CN1C(=O)CN=C(c2ccccc2)c2cc(Cl)ccc21 [diazepam]
locomotor activity (sedative action) [1]: Dose-dependent inhibition of locomotor activity | time spent in the lit area ([2]; wild type mice, diazepam 0.5, 1, 2 mg/kg p.o.): dose-dependently increased the time spent in the lit area | time spent in the lit area ([2]; α2(H101R) mice, diazepam up to 2 mg/kg p.o.): did not increase the time spent in the lit area | time spent in the lit area ([2]; α3(H126R) mice, diazepam 0.5, 1, 2 mg/kg p.o.): Dose-dependent increase in the time spent in the lit area | decrease in the affinity for diazepam [3]: more than 1,000 fold | percentage of mice developing tonic convulsions (anticonvulsant action) ([4]; wild type mice): Dose-dependent decrease of the percentage of mice developing tonic convulsions | percentage of mice developing tonic convulsions (anticonvulsant action) ([4]; α2(H101R) mice): not impaired; also recorded: Dose-dependent decrease of the percentage of mice developing tonic convulsions | percentage of mice developing tonic convulsions (anticonvulsant action) ([4]; α3(H126R) mice): not impaired; also recorded: Dose-dependent decrease of the percentage of mice developing tonic convulsions | potentiation of GABA response by diazepam ([5]; diazepam 1μM, GABA 3 μM, n=29): 17.6±4.5% | withdrawal symptoms (locomotor activity) ([6]; wild type mice): exhibited withdrawal symptoms | withdrawal symptoms (locomotor activity) ([6]; α1-GABAA receptor (H101R) mice): greatly reduced | potentiation of GABA response by diazepam ([7]; diazepam 1μM, GABA 3 μM, n=18): 48.1±7.9% | decrease in the affinity for diazepam [8]: more than 1,000 fold | entries on the open arms ([9]; wild type mice): increased | percentage of time spent on the open arms ([9]; wild type mice): increased | entries on the open arms ([9]; α2(H101R) mice): failed to increase | percentage of time spent on the open arms ([9]; α2(H101R) mice): failed to increase | entries on the open arms ([9]; α3(H126R) mice): increased | percentage of time spent on the open arms ([9]; α3(H126R) mice): increased

CCOC(=O)c1ncn2c1CN(C)C(=O)c1cc(N=[N+]=[N-])ccc1-2 [Ro15-4513]
Kd [10]: 8 ± 1.3 nM | Kd ([11]; α2 wild type controls): 4.3 ± 0.8 nM | Kd ([11]; α3 wild type controls): 4.9 ± 2.1 nM | modulation of GABA response by Ro15-4513 (agonistic response) ([5]; Ro15-4513 1μM, n=23): 11.7±7.5% | modulation of GABA response by Ro15-4513 (inverse agonistic action) ([7]; Ro15-4513 1μM, n=13): −39±5.2% | Kd [12]: 6.5 ± 1.6 nM | efficacy of Ro15-4513 [13]: from inverse agonism to agonism

CCC1(c2ccccc2)C(=O)NC(=O)NC1=O [phenobarbital, Sodium phenobarbital]
time in the lit area ([2]; wild type mice): 111.75 s | time in the lit area ([2]; α2(H101R) mice): 110.9 s
